{"source": "patent US5538950A", "about": "“Endothelin antagonists and their preparation” (Fujisawa Pharmaceutical Co., Ltd., priority 1991, dated 1996)", "tested_on": "endothelin receptor (crude receptor membrane preparation of porcine aorta)", "assay": "Radioligand binding assay: 125I-endothelin-1 binding to porcine aorta membrane", "details": "^125 I-Endothelin-1 1.67×10^-11 M, room temperature, 60 minutes, read-out: Effect on specific binding of ^125 I-endothelin-1 in porcine aorta membrane, IC50", "procedure": "Radioligand binding assay:\n(a) Crude receptor membrane preparation:\nPorcine aorta was purchased from Pel-Freez Biologicals (U.S.A.) and stored at -80° C. until use.\nPorcine aorta (50 g) was thawed and dissected free from fatty tissue, minced with scissors and then homogenized with a polytron (Brinkmann PT-20, maximal speed for 3×10 sec) in 100 ml buffer (0.25M sucrose, 10 mM Tris-HCl, 0.1 mM EDTA).\nThe homogenate was centrifuged at 10,000 g for 20 minutes at 4° C.\nThe supernatant, containing the plasma membrane fraction, was centrifuged at 100,000 g for 60 minutes at 4° C., and then resultant pellets were referred to as crude membrane fractions.\nThe pellets were resuspended in 25 ml of binding assay buffer (50 mM Tris-HCl, 100 mM NaCl, 5 mM MgCl2, 1.5 μg/ml phenylmethylsulfonyl fluoride (PMSF), 120 μg/ml bacitracin, 12 μg/ml leupepcin, 6 μg/ml chymostain, 0.1% bovine serum albumin (BSA), pH 7.5).\nThe aorta membrane fractions were stored at -80° C. until use.\n(b) ^125 I-endothelin-1 binding assay: […]\nAfter incubation, the incubation mixture were filtered through Glass-fiber GF/C filter (pretreated with 0.1% polyethylene imine for 3 hours prior to use) using cell harvester (Brandel M-24S). […] The filters were counted in a gamma counter (Packard Auto Gamma Model 5650).", "note": "Where a name gives a salt, the structure may show the parent alone.", "data": [{"smiles": "CC(C)C[C@H](CC(=O)N1CCCCC1)C(=O)N[C@H](Cc1cn(C)c2ccccc12)C(=O)N[C@H](Cc1ccccn1)C(N)=O", "note": "[Compound A, [(2R)-2-(Piperidinocarbonyl)methyl-4-methylvaleryl]-D-TrP(Me)-D-Pya-NH2 hydrochloride]", "values": [{"measurement": "IC50", "result": 5.2, "unit": "nM"}]}]}
